Source: ChEMBL document CHEMBL5584324, “Exploiting spirooxindoles for dual DNA targeting/CDK2 inhibition and simultaneous mitigation of oxidative stress towards selective NSCLC therapy; synthesis, evaluation, and molecular modelling studies” (RSC Med Chem, 2024)
The source made the active and inactive calls. No cut-off for these calls is given here.

What was measured:
A549 [1] = assay: Induction of apoptosis in human A549 cells assessed as late apoptotic cells at 0.089 uM incubated for 48 hrs by annexin V-FITC/PI staining based flow cytometry (reference value: 0.28 %); type: functional
[2] = Cytotoxicity against human WI-38 cells incubated for 72 hrs by MTT assay; type: toxicity, cell-based
A549 [3] = assay: Induction of cell cycle arrest in human A549 cells assessed as accumulation of cell debris at 0.089 uM incubated for 48 hrs by propidium iodide staining based immunocytometric analysis (reference value: 2.25 %); type: functional
Calf thymus DNA [4] = assay: Binding affinity to calf thymus DNA assessed as disruption of DNA by measuring increase in TB3+ fluorescence at 5 uM incubated for 24 hrs followed by biosensor TbCl3 addition by fluorescence spectrophotometric analysis; type: tissue-based; settings: Bos taurus
[5] = Antioxidant activity assessed as DPPH radical scavenging activity at 100 uM incubated for 30 mins by absorbance based assay (reference value: […] %); type: functional
A549 [6] = assay: Induction of cell cycle arrest in human A549 cells assessed as accumulation of cells at G2/M phase at 0.089 uM incubated for 48 hrs by propidium iodide staining based immunocytometric analysis (reference value: 18.31 %); type: functional
A549 [7] = assay: Induction of cell cycle arrest in human A549 cells assessed as accumulation of aggregates at 0.089 uM incubated for 48 hrs by propidium iodide staining based immunocytometric analysis (reference value: 1.81 %); type: functional
A549 [8] = assay: Induction of apoptosis in human A549 cells assessed as necrotic cells at 0.089 uM incubated for 48 hrs by annexin V-FITC/PI staining based flow cytometry (reference value: 1.21 %); type: functional
[9] = Antioxidant activity assessed as DPPH radical scavenging activity incubated for 30 mins by absorbance based assay; type: functional
NCI-H460 = assay: Cytotoxicity against human NCI-H460 cells incubated for 72 hrs by MTT assay; settings: NCI-H460, 72 h
[10] = Antioxidant activity assessed as DPPH radical scavenging activity at 10 uM incubated for 30 mins by absorbance based assay relative to trolox; type: functional
Calf thymus DNA [11] = assay: Binding affinity to calf thymus DNA assessed as disruption of DNA by measuring increase in TB3+ fluorescence at 24.6 nM incubated for 24 hrs followed by biosensor TbCl3 addition by fluorescence spectrophotometric analysis; type: tissue-based; settings: Bos taurus
A549 [12] = assay: Cytotoxicity against human A549 cells assessed as morphological damage incubated for 72 hrs by inverted phase contrast microscopic analysis; type: functional, cell-based
A549 [13] = assay: Induction of apoptosis in human A549 cells assessed as early apoptotic cells at 0.089 uM incubated for 48 hrs by annexin V-FITC/PI staining based flow cytometry (reference value: 0.37 %); type: functional
Calf thymus DNA [14] = assay: Binding affinity to calf thymus DNA assessed as disruption of DNA by measuring increase in TB3+ fluorescence upto 4 uM incubated for 24 hrs followed by biosensor TbCl3 addition by fluorescence spectrophotometric analysis; type: tissue-based; settings: Bos taurus
A549 [15] = assay: Induction of cell cycle arrest in human A549 cells assessed as accumulation of cells at G1 phase at 0.089 uM incubated for 48 hrs by propidium iodide staining based immunocytometric analysis (reference value: 44.75 %); type: functional
WI-38 = assay: Cytotoxicity against human WI-38 cells by measuring effective concentration incubated for 72 hrs by MTT assay; type: toxicity, cell-based; settings: wi-38, 72 h
A549 [16] = assay: cells; settings: Homo sapiens, A549, 72 h
Description: Cytotoxicity against human A549 cells incubated for 72 hrs by MTT assay

A549 [17] = assay: Induction of cell cycle arrest in human A549 cells assessed as accumulation of cells at S phase at 0.089 uM incubated for 48 hrs by propidium iodide staining based immunocytometric analysis (reference value: 36.94 %); type: functional
[18] = Selectivity index, ratio of IC50 for cytotoxicity against human WI-38 cells to IC50 for cytotoxicity against human A549 cells; type: toxicity, cell-based; settings: WI-38 cells versus A549 cells, read-out: Ratio IC50
[19] = Selectivity index, ratio of IC50 for cytotoxicity against human WI-38 cells to IC50 for cytotoxicity against human NCI-H460 cells; type: toxicity, cell-based; settings: WI-38 cells versus NCI-H460 cells, read-out: Ratio IC50
Calf thymus DNA [20] = assay: Binding affinity to calf thymus DNA assessed as disruption of DNA by measuring increase in TB3+ fluorescence at 35.3 nM incubated for 24 hrs followed by biosensor TbCl3 addition by fluorescence spectrophotometric analysis; type: tissue-based; settings: Bos taurus

| Structure (SMILES) | IC50 at 72 h [2] [nM] | IC50 (NCI-H460) [nM] | EC100 (WI-38) [µM] | IC50 (A549 [16]) [nM] | selectivity ratio [18] | selectivity ratio [19] | other results |
| --- | --- | --- | --- | --- | --- | --- | --- |
| O=C(c1ccc([N+](=O)[O-])cc1)[C@H]1[C@H](c2cn(-c3ccccc3)nc2-c2ccccc2)[C@@H]2CC3CCCCC3N2[C@]12C(=O)Nc1ccc(Cl)cc12 (some centres undefined) | 480 | 2460 | 0.249 | 89 |  |  | Activity (A549 [1]): 15.13%; Activity (A549 [3]): 2.03%; Activity (Calf thymus DNA [4]): Active; Activity [5]: 88.4%; Activity (A549 [6]): 28.16%; Activity (A549 [7]): 1.96%; Activity (A549 [8]): 7.46%; Activity [9]: Dose-Dependent Effect; Activity [10]: 60%; Activity (Calf thymus DNA [11]): Active; Activity (A549 [12]): Active; Activity (A549 [13]): 25.72%; Activity (Calf thymus DNA [14]): Active; Activity (A549 [15]): 38.56%; Activity (A549 [17]): 33.28% |
| O=C(c1ccc(Br)cc1)[C@H]1[C@H](c2cn(-c3ccccc3)nc2-c2ccccc2)[C@@H]2CC3CCCCC3N2[C@]12C(=O)Nc1cc(Cl)ccc12 (some centres undefined) | 1040 | 1420 | 0.594 | 205 | 5.05 | 0.73 |  |
| O=C(c1ccccc1[N+](=O)[O-])[C@H]1[C@H](c2cn(-c3ccccc3)nc2-c2ccccc2)[C@@H]2CC3CCCCC3N2[C@]12C(=O)Nc1cc(Cl)ccc12 (some centres undefined) | 435 | 911 | 0.142 | 130 | 3.35 | 0.48 |  |
| CN1C[C@@H](c2cn(-c3ccccc3)nc2-c2ccccc2)[C@H](C(=O)c2ccc([N+](=O)[O-])cc2)[C@@]12C(=O)Nc1ccccc12 | 741 | 748 | 0.375 | 223 | 3.32 | 0.99 |  |
| O=C(c1ccccc1)[C@H]1[C@H](c2cn(-c3ccccc3)nc2-c2ccccc2)[C@@H]2CC3CCCCC3N2[C@]12C(=O)Nc1cc(Cl)ccc12 (some centres undefined) | 509 | 964 | 0.267 | 192 | 2.65 | 0.53 |  |
| O=C(c1ccccc1[N+](=O)[O-])[C@H]1[C@H](c2cn(-c3ccccc3)nc2-c2ccccc2)[C@@H]2CC3CCCCC3N2[C@]12C(=O)Nc1ccc(Cl)cc12 (some centres undefined) | 294 | 1340 | 0.094 | 96 |  |  | Activity (Calf thymus DNA [4]): Active; Activity (Calf thymus DNA [20]): Active; Activity (A549 [12]): Active; Activity (Calf thymus DNA [14]): Active |
| COc1ccc2c(c1)[C@@]1(C(=O)N2)[C@@H](C(=O)c2ccc([N+](=O)[O-])cc2)[C@H](c2cn(-c3ccccc3)nc2-c2ccccc2)[C@@H]2CC3CCCCC3N21 (some centres undefined) | 773 | 895 | 0.366 | 212 | 3.65 | 0.86 |  |
| O=C(c1ccc([N+](=O)[O-])cc1)[C@H]1[C@H](c2cn(-c3ccccc3)nc2-c2ccccc2)[C@@H]2CC3CCCCC3N2[C@]12C(=O)Nc1ccccc12 (some centres undefined) | 712 | 909 | 0.41 | 205 | 3.47 | 0.78 |  |
| CN1C[C@@H](c2cn(-c3ccccc3)nc2-c2ccccc2)[C@H](C(=O)c2ccccc2)[C@@]12C(=O)Nc1ccccc12 | 1300 | 761 | 0.59 | 344 | 3.79 | 1.71 |  |
| CN1C[C@@H](c2cn(-c3ccccc3)nc2-c2ccccc2)[C@H](C(=O)c2ccccc2)[C@@]12C(=O)Nc1ccc(Cl)cc12 | 545 | 417 | 0.308 | 283 | 1.93 | 1.3 |  |
| COc1ccc2c(c1)[C@@]1(C(=O)N2)[C@@H](C(=O)c2ccc([N+](=O)[O-])cc2)[C@H](c2cn(-c3ccccc3)nc2-c2ccccc2)CN1C | 1490 | 1140 | 0.539 | 235 | 6.34 | 1.3 |  |
| O=C(c1ccc(Br)cc1)[C@H]1[C@H](c2cn(-c3ccccc3)nc2-c2ccccc2)[C@@H]2CC3CCCCC3N2[C@]12C(=O)Nc1ccccc12 (some centres undefined) | 466 | 725 | 0.271 | 158 | 2.95 | 0.64 |  |
| O=C(c1ccccc1[N+](=O)[O-])[C@H]1[C@H](c2cn(-c3ccccc3)nc2-c2ccccc2)[C@@H]2CC3CCCCC3N2[C@]12C(=O)Nc1ccccc12 (some centres undefined) | 413 | 613 | 0.224 | 170 | 2.43 | 0.67 |  |
| O=C(c1ccccc1)[C@H]1[C@H](c2cn(-c3ccccc3)nc2-c2ccccc2)[C@@H]2CC3CCCCC3N2[C@]12C(=O)Nc1ccccc12 (some centres undefined) | 825 | 537 | 0.451 | 307 | 2.69 | 1.53 |  |
| O=C(c1ccccc1)[C@H]1[C@H](c2cn(-c3ccccc3)nc2-c2ccccc2)[C@@H]2CC3CCCCC3N2[C@]12C(=O)Nc1ccc(Cl)cc12 (some centres undefined) | 467 | 529 | 0.28 | 231 | 2.02 | 0.88 |  |
| CN1C[C@@H](c2cn(-c3ccccc3)nc2-c2ccccc2)[C@H](C(=O)c2ccc([N+](=O)[O-])cc2)[C@@]12C(=O)Nc1ccc(Cl)cc12 | 480 | 1030 | 0.287 | 131 | 3.66 | 0.46 |  |
| COc1cccc2c1C(=O)c1c(O)c3c(c(O)c1C2=O)C[C@@](O)(C(=O)CO)C[C@@H]3O[C@H]1C[C@H](N)[C@H](O)[C@H](C)O1 [DOXORUBICIN] | 129 |  | 0.033 |  |  |  | Activity (Calf thymus DNA [4]): Active |
